According to patent US10150760B2, “Compounds for use in preparing heterocyclic triazole agonists of the APJ receptor” (AMGEN INC., priority 2016, dated 2018):

What was measured:
human APJ receptor = human APJ receptor (Homo sapiens (Human), UniProt P35414); assay: [35S]GTPγS binding assay on membranes from CHO cells stably expressing human APJ receptor; assay type: biochemical; settings: read-out: Activity hAPJ SPA EC50 IP
In short: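 Membranes from CHO cells stably expressing human APJ incubated with ligand, 0.2 nM [35S]GTPγS and WGA SPA beads in HEPES pH 7.5 with 5 mM MgCl2, 200 mM NaCl, 3 μM GDP, 90 min at RT. Nonspecific binding defined with 100 μM GTPγS; EC50 by non-linear regression.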

[1] = tested on: isolated perfused rat hearts; assay: Ex vivo isolated perfused rat heart assay (Langendorff apparatus), load independent inotropic and lusitropic effects; parameters: species or system Sprague Dawley rat; settings: ex vivo isolated perfused rat heart, percent change over vehicle; for Isolated Heart Assay dP/dtmax (%): contractility; for Isolated Heart Assay dP/dtmin (%): relaxation
Text: Evidence for Load Independent Inotropic Effects with APJ Agonists Using Ex Vivo Assay (Isolated Perfused Rat Hearts)
Naive Sprague Dawley® SD rats (Harlan laboratories (Livermore, Calif. USA)) were anaesthetized and hearts were excised followed by cannulation in the Langendorff apparatus (Harvard apparatus, Holliston, Mass. USA) via aorta. The heart was perfused retrograde with modified oxygenated Krebs-Henseleit buffer (Skrzypiec-Spring M et al., (2007) J. Pharmacol Toxicol Methods 55: 113-126). The pressure of the solution causes the aortic valve to shut and the perfusate is then forced into the ostium and the coronary vessels. This allows the heart to beat for several h. A balloon was inserted into the left ventricle (LV) to measure dP/dtmax (derivative of left ventricular pressure) as an index of cardiac contractility. The APJ agonist was perfused constantly in a dose dependent manner into the heart to examine cardiac contractility.
Example 49.0 was infused at different concentrations and load independent contractility was measured by index of LV dP/dtmax and the results are expressed as a percent change over vehicle. […] Example 49.0 was infused at different concentrations and load independent lusitropic effect (relaxation) was measured by index of LV dP/dtmin where results are expressed as percent change over vehicle. […] Example 60.0 was infused at different concentrations and load independent contractility was measured by index of LV dP/dtmax and the results are expressed as a percent change over vehicle. […] Example 60.0 was infused at different concentrations and load independent lusitropic effect (relaxation) was measured by index of LV dP/dtmin where results are expressed as percent change over vehicle.

Sequence of human APJ receptor (P35414 whole entry): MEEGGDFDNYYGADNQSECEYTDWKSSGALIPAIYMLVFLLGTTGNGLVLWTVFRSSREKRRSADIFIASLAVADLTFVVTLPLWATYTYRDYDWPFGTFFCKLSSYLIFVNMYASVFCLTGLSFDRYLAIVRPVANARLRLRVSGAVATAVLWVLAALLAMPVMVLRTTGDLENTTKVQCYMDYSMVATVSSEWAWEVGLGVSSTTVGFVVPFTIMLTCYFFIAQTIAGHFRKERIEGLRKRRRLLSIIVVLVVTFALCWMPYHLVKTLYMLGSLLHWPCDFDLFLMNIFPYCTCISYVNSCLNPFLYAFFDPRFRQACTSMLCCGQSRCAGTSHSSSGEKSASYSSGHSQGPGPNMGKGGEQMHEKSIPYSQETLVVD

Row | Compound | EC50 (human APJ receptor) [nM] | Isolated Heart Assay dP/dtmax (%) [1] | Isolated Heart Assay dP/dtmin (%) [1]
1 | COc1cccc(OC)c1-n1c(NS(=O)(=O)[C@@H](C)[C@H](C)c2ncc(Cl)cn2)nnc1[C@@H]1COCCO1 (single isomer, unassigned) [Example 40.0, (2S,3R)-3-(5-chloro-2-pyrimidinyl)-N-(4-(2,6-dimethoxyphenyl)-5-((2R)-1,4-dioxan-2-yl)-4H-1,2,4-triazol-3-yl)-2-butanesulfonamide or (2S,3R)-3-(5-chloro-2-pyrimidinyl)-N-(4-(2,6-dimethoxyphenyl)-5-((2S)-1,4-dioxan-2-yl)-4H-1,2,4-triazol-3-yl)-2-butanesulfonamide] | 14 | No effect | No effect
2 | COc1cccc(OC)c1-n1c(NS(=O)(=O)[C@@H](C)[C@H](C)c2ncc(Cl)cn2)nnc1[C@H]1CCCO1 (single isomer, unassigned) [Example 47.0, (2S,3R)-3-(5-chloro-2-pyrimidinyl)-N-(4-(2,6-dimethoxyphenyl)-5-((2S)-tetrahydro-2-furanyl)-4H-1,2,4-triazol-3-yl)-2-butanesulfonamide or (2S,3R)-3-(5-chloro-2-pyrimidinyl)-N-(4-(2,6-dimethoxyphenyl)-5-((2R)-tetrahydro-2-furanyl)-4H-1,2,4-triazol-3-yl)-2-butanesulfonamide] | 0.72 | 6.5% | 1.0%
3 | COc1cccc(OC)c1-n1c(NS(=O)(=O)[C@@H](C)[C@H](C)c2ncc(C)cn2)nnc1[C@H]1CCCO1 (single isomer, unassigned) [Example 50.0, (2S,3R)-N-(4-(2,6-dimethoxyphenyl)-5-((S)-tetrahydrofuran-2-yl)-4H-1,2,4-triazol-3-yl)-3-(5-methylpyrimidin-2-yl)butane-2-sulfonamide or (2S,3R)-N-(4-(2,6-dimethoxyphenyl)-5-((R)-tetrahydrofuran-2-yl)-4H-1,2,4-triazol-3-yl)-3-(5-methylpyrimidin-2-yl)butane-2-sulfonamide] | 28 | 2.0% | No effect
4 | COc1cccc(OC)c1-n1c(NS(=O)(=O)[C@@H](C)[C@H](OC)c2ncc(Cl)cn2)nnc1[C@H]1CCCO1 (single isomer, unassigned) [Example 51.0, (1R,2S)-1-(5-chloropyrimidin-2-yl)-N-(4-(2,6-dimethoxyphenyl)-5-((R)-tetrahydrofuran-2-yl)-4H-1,2,4-triazol-3-yl)-1-methoxypropane-2-sulfonamide or (1R,2S)-1-(5-chloropyrimidin-2-yl)-N-(4-(2,6-dimethoxyphenyl)-5-((S)-tetrahydrofuran-2-yl)-4H-1,2,4-triazol-3-yl)-1-methoxypropane-2-sulfonamide] | 0.59 | No effect | No effect
5 | COc1cccc(OC)c1-n1c(NS(=O)(=O)[C@@H](C)[C@H](C)c2ncc(Cl)cn2)nnc1[C@H]1CCCO1 (single isomer, unassigned) [Example 53.0, (2S,3R)-3-(5-chloro-2-pyrimidinyl)-N-(4-(2,6-dimethoxyphenyl)-5-((2S)-tetrahydro-2-furanyl)-4H-1,2,4-triazol-3-yl)-2-butanesulfonamide or (2S,3R)-3-(5-chloro-2-pyrimidinyl)-N-(4-(2,6-dimethoxyphenyl)-5-((2R)-tetrahydro-2-furanyl)-4H-1,2,4-triazol-3-yl)-2-butanesulfonamide] | 13 | 14.0% | 12.4%
6 | COc1cccc(OC)c1-n1c(NS(=O)(=O)[C@@H](C)[C@H](OC)c2ncc(Cl)cn2)nnc1[C@H]1CCOC1 (single isomer, unassigned) [Example 56.0, (1R,2S)-1-(5-chloropyrimidin-2-yl)-N-(4-(2,6-dimethoxyphenyl)-5-((R)-tetrahydrofuran-3-yl)-4H-1,2,4-triazol-3-yl)-1-methoxypropane-2-sulfonamide or (1R,2S)-1-(5-chloropyrimidin-2-yl)-N-(4-(2,6-dimethoxyphenyl)-5-((S)-tetrahydrofuran-3-yl)-4H-1,2,4-triazol-3-yl)-1-methoxypropane-2-sulfonamide] | 19 | 6.8% | 7.1%
7 | COc1cccc(OC)c1-n1c(NS(=O)(=O)[C@@H](C)[C@H](OC)c2ncc(Cl)cn2)nnc1[C@H]1CCOC1 (single isomer, unassigned) [Example 57.0, (1R,2S)-1-(5-chloropyrimidin-2-yl)-N-(4-(2,6-dimethoxyphenyl)-5-((R)-tetrahydrofuran-3-yl)-4H-1,2,4-triazol-3-yl)-1-methoxypropane-2-sulfonamide or (1R,2S)-1-(5-chloropyrimidin-2-yl)-N-(4-(2,6-dimethoxyphenyl)-5-((S)-tetrahydrofuran-3-yl)-4H-1,2,4-triazol-3-yl)-1-methoxypropane-2-sulfonamide] | 21 | No effect | No effect
8 | COc1cccc(OC)c1-n1c(NS(=O)(=O)[C@@H](C)[C@H](C)c2ncc(Cl)cn2)nnc1[C@H]1CCOC1 (single isomer, unassigned) [Example 61.0, (2S,3R)-3-(5-chloropyrimidin-2-yl)-N-(4-(2,6-dimethoxyphenyl)-5-((R)-tetrahydrofuran-3-yl)-4H-1,2,4-triazol-3-yl)butane-2-sulfonamide or (2S,3R)-3-(5-chloropyrimidin-2-yl)-N-(4-(2,6-dimethoxyphenyl)-5-((S)-tetrahydrofuran-3-yl)-4H-1,2,4-triazol-3-yl)butane-2-sulfonamide] | 29 | 3.0% | No effect
9 | COc1cccc(OC)c1-n1c(NS(=O)(=O)[C@@H](C)[C@H](C)c2ncc(Cl)cn2)nnc1[C@H]1CCCOC1 (single isomer, unassigned) [Example 63.0, (2S,3R)-3-(5-chloropyrimidin-2-yl)-N-(4-(2,6-dimethoxyphenyl)-5-((R)-tetrahydro-2H-pyran-3-yl)-4H-1,2,4-triazol-3-yl)butane-2-sulfonamide or (2S,3R)-3-(5-chloropyrimidin-2-yl)-N-(4-(2,6-dimethoxyphenyl)-5-((S)-tetrahydro-2H-pyran-3-yl)-4H-1,2,4-triazol-3-yl)butane-2-sulfonamide] | 1.5 | 14.0% | 11.0%
10 | COc1cccc(OC)c1-n1c(NS(=O)(=O)[C@@H](C)[C@H](OC)c2ncc(Cl)cn2)nnc1[C@H]1CCCOC1 (single isomer, unassigned) [Example 65.0, (1R,2S)-1-(5-chloropyrimidin-2-yl)-N-(4-(2,6-dimethoxyphenyl)-5-((R)-tetrahydro-2H-pyran-3-yl)-4H-1,2,4-triazol-3-yl)-1-methoxypropane-2-sulfonamide or (1R,2S)-1-(5-chloropyrimidin-2-yl)-N-(4-(2,6-dimethoxyphenyl)-5-((S)-tetrahydro-2H-pyran-3-yl)-4H-1,2,4-triazol-3-yl)-1-methoxypropane-2-sulfonamide] | 2.9 | 6.0% | No effect
11 | (2S,3R)-N-(4-((1r,2R,6S)-2,6-dimethoxycyclohexyl)-5-((3S)-tetrahydro-3-furanyl)-4H-1,2,4-triazol-3-yl)-3-(5-methyl-2-pyrimidinyl)-2-butanesulfonamide or (2S,3R)-N-(4-((1r,2R,6S)-2,6-dimethoxycyclohexyl)-5-((3R)-tetrahydro-3-furanyl)-4H-1,2,4-triazol-3-yl)-3-(5-methyl-2-pyrimidinyl)-2-butanesulfonamide [Example 4.0] | 890 |  | 
12 | (2S,3R)-N-(4-((1r,2R,6S)-2,6-dimethoxycyclohexyl)-5-((3S)-tetrahydro-3-furanyl)-4H-1,2,4-triazol-3-yl)-3-(5-methyl-2-pyrimidinyl)-2-butanesulfonamide or (2S,3R)-N-(4-((1r,2R,6S)-2,6-dimethoxycyclohexyl)-5-((3R)-tetrahydro-3-furanyl)-4H-1,2,4-triazol-3-yl)-3-(5-methyl-2-pyrimidinyl)-2-butanesulfonamide [Example 5.0] | > 4200 |  | 
13 | ((2S,3R)-N-(4-(2,6-dimethoxyphenyl)-5-((R)-1,4-dioxan-2-yl)-4H-1,2,4-triazol-3-yl)-3-(5-methylpyrimidin-2-yl)butane-2-sulfonamide or (2S,3R)-N-(4-(2,6-dimethoxyphenyl)-5-((S)-1,4-dioxan-2-yl)-4H-1,2,4-triazol-3-yl)-3-(5-methylpyrimidin-2-yl)butane-2-sulfonamide [Example 206.0] | 35 |  | 
